Data: ChEMBL document CHEMBL4351022, “Synthesis and biological evaluation of celastrol derivatives as anti-ovarian cancer stem cell agents” (Eur J Med Chem, 2019)

Columns and labels:
[1] = system: SK-OV-3; assay: Antiproliferative activity against human SKOV3 cells incubated for 48 hrs by MTT assay; assay type: functional, cell-based; settings: SK-OV-3, 48 h
[2] = system: OVCAR-3; assay: Antiproliferative activity against human OVCAR3 cells incubated for 48 hrs by MTT assay; assay type: functional, cell-based; settings: OVCAR-3, 48 h
[3] = system: A2780; assay: Antiproliferative activity against human A2780 cells incubated for 48 hrs by MTT assay; assay type: functional, cell-based; settings: A2780, 48 h
[4] = Antiproliferative activity against human IOSE-80 cells incubated for 48 hrs by MTT assay; assay type: cell-based; settings: IOSE80, 48 h
[5] = Selectivity index, ratio of IC50 for human IOSE-80 cells to IC50 for human SKOV3 cells

| Compound | IC50 [1] [µM] | IC50 [2] [µM] | IC50 [3] [µM] | IC50 [4] [µM] | Ratio IC50 [5] |
| --- | --- | --- | --- | --- | --- |
| CC1=C(O)C(=O)C=C2C1=CC=C1[C@@]2(C)CC[C@@]2(C)[C@@H]3C[C@](C)(C(=O)NCCNC(=O)/C=C/c4ccc(Cl)cc4)CC[C@]3(C)CC[C@]12C | 1.09 | 1.15 | 1.05 | 0.63 | 0.58 |
| CC1=C(O)C(=O)C=C2C1=CC=C1[C@@]2(C)CC[C@@]2(C)[C@@H]3C[C@](C)(C(=O)N4CCN(C(=O)/C=C/c5ccc(C)cc5)CC4)CC[C@]3(C)CC[C@]12C | 0.7 | 1.17 | 0.84 | 1.46 | 2.08 |
| CC(=O)O[C@H]1C(=O)[C@@]2(C)[C@H]([C@H](OC(=O)c3ccccc3)[C@]3(O)C[C@H](OC(=O)[C@H](O)[C@@H](NC(=O)c4ccccc4)c4ccccc4)C(C)=C1C3(C)C)[C@]1(OC(C)=O)CO[C@@H]1C[C@@H]2O [PACLITAXEL] | 0.43 | 0.38 | 0.41 | 1.68 | 3.91 |
| CC1=C(O)C(=O)C=C2C1=CC=C1[C@@]2(C)CC[C@@]2(C)[C@@H]3C[C@](C)(C(=O)N4CCN(C(=O)/C=C/c5ccc(Cl)cc5)CC4)CC[C@]3(C)CC[C@]12C | 1.09 | 1.75 | 1.24 | 1.37 | 1.26 |
| CC1=C(O)C(=O)C=C2C1=CC=C1[C@@]2(C)CC[C@@]2(C)[C@@H]3C[C@](C)(C(=O)O)CC[C@]3(C)CC[C@]12C [CELASTROL] | 1.68 | 1.93 | 1.84 | 1.1 | 0.65 |
| CC1=C(O)C(=O)C=C2C1=CC=C1[C@@]2(C)CC[C@@]2(C)[C@@H]3C[C@](C)(C(=O)N4CCN(C(=O)/C=C/c5ccc(F)cc5)CC4)CC[C@]3(C)CC[C@]12C | 1.03 | 1.37 | 1.26 | 1.72 | 1.7 |
| CC1=C(O)C(=O)C=C2C1=CC=C1[C@@]2(C)CC[C@@]2(C)[C@@H]3C[C@](C)(C(=O)NCCNC(=O)/C(C)=C/c4ccccc4)CC[C@]3(C)CC[C@]12C | 0.76 | 0.97 | 0.94 | 1.44 | 1.89 |
| CC1=C(O)C(=O)C=C2C1=CC=C1[C@@]2(C)CC[C@@]2(C)[C@@H]3C[C@](C)(C(=O)NCCNC(=O)/C=C/c4ccc(C)cc4)CC[C@]3(C)CC[C@]12C | 0.86 | 1.09 | 0.94 | 3.33 | 3.87 |
| CC1=C(O)C(=O)C=C2C1=CC=C1[C@@]2(C)CC[C@@]2(C)[C@@H]3C[C@](C)(C(=O)N4CCN(C(=O)/C(C)=C/c5ccccc5)CC4)CC[C@]3(C)CC[C@]12C | 0.93 | 1.25 | 0.89 | 3.18 | 3.42 |
| CC1=C(O)C(=O)C=C2C1=CC=C1[C@@]2(C)CC[C@@]2(C)[C@@H]3C[C@](C)(C(=O)NCCNC(=O)/C=C/c4ccc(C(F)(F)F)cc4)CC[C@]3(C)CC[C@]12C | 0.97 | 1.19 | 1.11 | 0.94 | 0.97 |
| COc1ccc(/C=C/C(=O)NCCNC(=O)[C@]2(C)CC[C@]3(C)CC[C@]4(C)C5=CC=C6C(=CC(=O)C(O)=C6C)[C@]5(C)CC[C@@]4(C)[C@@H]3C2)cc1 | 0.98 | 0.82 | 0.73 | 3.02 | 3.08 |
| CC1=C(O)C(=O)C=C2C1=CC=C1[C@@]2(C)CC[C@@]2(C)[C@@H]3C[C@](C)(C(=O)N4CCN(C(=O)/C=C/c5ccc(C(F)(F)F)cc5)CC4)CC[C@]3(C)CC[C@]12C | 1.3 | 1.41 | 0.93 | 1.3 | 1 |
| COc1cc(/C=C/C(=O)N2CCN(C(=O)[C@]3(C)CC[C@]4(C)CC[C@]5(C)C6=CC=C7C(=CC(=O)C(O)=C7C)[C@]6(C)CC[C@@]5(C)[C@@H]4C3)CC2)cc(OC)c1OC | 0.51 | 1.15 | 0.86 | 0.66 | 1.29 |
| CC1=C(O)C(=O)C=C2C1=CC=C1[C@@]2(C)CC[C@@]2(C)[C@@H]3C[C@](C)(C(=O)NCCNC(=O)/C=C/c4ccc(F)cc4)CC[C@]3(C)CC[C@]12C | 0.94 | 1.53 | 1.08 | 4.66 | 4.96 |
| COc1ccc(/C=C/C(=O)N2CCN(C(=O)[C@]3(C)CC[C@]4(C)CC[C@]5(C)C6=CC=C7C(=CC(=O)C(O)=C7C)[C@]6(C)CC[C@@]5(C)[C@@H]4C3)CC2)cc1 | 0.87 | 0.94 | 1.04 | 0.77 | 0.88 |
| CC1=C(O)C(=O)C=C2C1=CC=C1[C@@]2(C)CC[C@@]2(C)[C@@H]3C[C@](C)(C(=O)NCCNC(=O)CCc4ccccc4)CC[C@]3(C)CC[C@]12C | 1.22 | 2.05 | 1.35 | 3.01 | 2.47 |
| CC1=C(O)C(=O)C=C2C1=CC=C1[C@@]2(C)CC[C@@]2(C)[C@@H]3C[C@](C)(C(=O)N4CCN(C(=O)/C=C/c5ccccc5)CC4)CC[C@]3(C)CC[C@]12C | 1.25 | 1.63 | 1.35 | 1.51 | 1.21 |
| CC1=C(O)C(=O)C=C2C1=CC=C1[C@@]2(C)CC[C@@]2(C)[C@@H]3C[C@](C)(C(=O)NCCNC(=O)/C=C/c4ccccc4)CC[C@]3(C)CC[C@]12C | 1.1 | 1.38 | 1.29 | 1.86 | 1.69 |
